Experiment [1] has as its system genotype 1b (Con 1) subgenomic replicon cell line. The experiment can be described thus: HCV replicon assay, genotype 1b (Renilla luciferase). Conditions: Hepatitis C virus; genotype 1b replicon, 72 hours, luciferase; read-out: genotype 1b EC50 (range class). The format is cell-based, HCV genotype 1b (Con 1). The method in brief:
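Subgenomic replicon cells expressing Renilla luciferase (1b Con1; 1a and 2a lines by the same method) seeded at 7000 cells/well (5000 for 2a) without G418, exposed to 3-fold compound dilutions for 72 h at 37 °C. Luciferase activity measured; EC50 by non-linear regression.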

A further experiment concerns the target 1b (BK) NS5bΔ21 (Hepatitis C virus genotype 1b (isolate BK) (HCV), UniProt P26663). The experiment can be described thus: HCV polymerase inhibition assay, genotype 1b. Conditions: 1b (BK) NS5bΔ21, 33P-GTP incorporation; read-out: 1b polymerase IC50 (range class). Type of experiment: biochemical, HCV genotype 1b (BK). The method in brief:
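Both genotype 1b and 3a enzymes assayed identically: ^33P-GTP incorporation on poly(rC) template, GTP at Km, 50 nM NS5bΔ21, pH 7.5 Tris with 5 mM MgCl2 and MnCl2, 1 h reaction ended by cold EDTA. Filter-bound label counted; IC50 fitted by non-linear regression across three-fold dilution series.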

As usually defined, the EC50 is the concentration giving half of the maximal effect. As a reminder, the IC50 is the midpoint of a concentration-inhibition curve.

Sequence of 1b (BK) NS5bΔ21 (P26663 2420-2989): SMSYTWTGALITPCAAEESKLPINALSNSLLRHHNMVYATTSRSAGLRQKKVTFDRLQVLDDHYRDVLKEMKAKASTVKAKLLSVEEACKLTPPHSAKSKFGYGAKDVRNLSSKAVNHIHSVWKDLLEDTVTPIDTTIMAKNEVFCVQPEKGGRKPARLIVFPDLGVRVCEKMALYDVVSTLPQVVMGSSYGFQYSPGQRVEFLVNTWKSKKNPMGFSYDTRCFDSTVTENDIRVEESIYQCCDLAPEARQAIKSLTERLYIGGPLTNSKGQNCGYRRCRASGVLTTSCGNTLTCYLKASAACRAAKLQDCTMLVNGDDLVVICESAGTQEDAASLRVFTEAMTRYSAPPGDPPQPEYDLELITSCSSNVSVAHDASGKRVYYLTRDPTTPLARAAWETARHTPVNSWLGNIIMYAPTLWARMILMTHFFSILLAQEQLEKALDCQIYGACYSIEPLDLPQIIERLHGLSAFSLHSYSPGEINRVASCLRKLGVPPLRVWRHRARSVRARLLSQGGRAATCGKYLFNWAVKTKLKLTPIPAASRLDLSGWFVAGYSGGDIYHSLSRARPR

Take `CNC(=O)c1c2cc(C3CC3)c(N(CCCNC(=O)CN)S(C)(=O)=O)cc2nn1-c1ccc(Br)cc1` [Compound 133]: the EC50 in experiment [1] fell in the range of 1000 to 9990 nM. Also, on 1b (BK) NS5bΔ21, the half-maximal inhibitory concentration (IC50) was below 990 nM.
In the same order, the values of `CNC(=O)c1c2cc(C3CC3)c(N(CCCNC(=O)C3CC3)S(C)(=O)=O)cc2nn1-c1ccc(Br)cc1` [Compound 183] are below 990 nM and below 990 nM.
In the same order, the values of `CCN(c1cc2nn(-c3ccc(F)cc3)c(C(=O)NC)c2cc1OCC#N)S(C)(=O)=O` [Compound 170] are below 990 nM and below 990 nM.
In the same order, the values of `CNC(=O)c1c2cc(C3CC3)c(N(CCCNC(=O)[C@@H]3CC(=O)N(C)C3)S(C)(=O)=O)cc2nn1-c1ccc(Br)cc1` (racemic) [Compound 182] are 1000 to 9990 nM and below 990 nM.
Take `CNC(=O)c1c2cc(C3CC3)c(N(CCCNC(=O)[C@H]3CCC[C@H]3C(=O)O)S(C)(=O)=O)cc2nn1-c1ccc(Br)cc1` [Compound 63, (1R,2S)-2-[(3-{[2-(4-Bromophenyl)-5-cyclopropyl-3-(methylcarbamoyl)-2H-indazol-6-yl](methylsulfonyl)amino}propyl)carbamoyl]cyclopentanecarboxylic acid]: the EC50 in experiment [1] was below 990 nM. The concentration for half-maximal inhibition (IC50) on 1b (BK) NS5bΔ21 is below 990 nM.
In the case of `CCCNC(=O)CCN(c1cc2nn(-c3ccc(Br)cc3)c(C(=O)NC)c2cc1C1CC1)S(C)(=O)=O` [Compound 165], the EC50 in experiment [1] fell in the range of 1000 to 9990 nM. In addition, on 1b (BK) NS5bΔ21, the IC50 was 1000 to 9990 nM.
As to `CCOC(=O)CN(c1cc2nn(-c3ccc(Br)cc3)c(C(=O)NC)c2cc1C1CC1)S(C)(=O)=O` [Compound 141], in experiment [1], the EC50 is 10000 to 50000 nM. At 1b (BK) NS5bΔ21, the half-inhibitory concentration (IC50) fell in the range of 1000 to 9990 nM.
On to `CNC(=O)c1c2cc(C3CC3)c(N(CCCOC)S(C)(=O)=O)cc2nn1-c1ccc(Cl)cc1` [Compound 243], for which the EC50 in experiment [1] is below 990 nM. Moreover, on 1b (BK) NS5bΔ21, the IC50 is below 990 nM.
As to `CNC(=O)c1c2cc(C3CC3)c(N(CCO)S(C)(=O)=O)cc2nn1-c1ccc(Oc2ccccc2)cc1` [Compound 35], the EC50 in experiment [1] is below 990 nM. Further, the IC50 at 1b (BK) NS5bΔ21 was in the range of 1000 to 9990 nM.
Regarding `CNC(=O)c1c2cc(C3CC3)c(N(CCCS(N)(=O)=O)S(C)(=O)=O)cc2nn1-c1ccc(Br)cc1` [Compound 102, 2-(4-Bromophenyl)-5-cyclopropyl-N-methyl-6-[methylsulfonyl(3-sulfamoylpropyl)amino]-2H-indazole-3-carboxamide], the EC50 in experiment [1] fell in the range of 1000 to 9990 nM. In addition, the IC50 on 1b (BK) NS5bΔ21 was below 990 nM.
Taken in the same sequence, the figures for `CNC(=O)c1c2cc(C3CC3)c(N(CCCO)S(C)(=O)=O)cc2nn1-c1ccc(C(C)C)cc1` [Compound 50, 5-cyclopropyl-6-[(3-hydroxypropyl)(methylsulfonyl)amino]-N-methyl-2-[4-(propan-2-yl)-phenyl]-2H-indazole-3-carboxamide] were 1000 to 9990 nM and 1000 to 9990 nM.
In the same order, the values of `CNC(=O)c1c2cc(C3CC3)c(N(CCC(=O)O)S(C)(=O)=O)cc2nn1-c1ccc(Br)cc1` [Compound 90, N-[2-(4-bromophenyl)-5-cyclopropyl-3-(methylcarbamoyl)-2H-indazol-6-yl]-N-(methylsulfonyl)-beta-alanine] are 10000 to 50000 nM and below 990 nM.
As to `CNC(=O)c1c2cc(C3CC3)c(N(CCCN3CCCC3=O)S(C)(=O)=O)cc2nn1-c1ccc(Br)cc1` [Compound 194], the EC50 in experiment [1] was below 990 nM. Also, the IC50 at 1b (BK) NS5bΔ21 was below 990 nM.
In the case of `CNC(=O)c1c2cc(C3CC3)c(N(CCNC(C)=O)S(C)(=O)=O)cc2nn1-c1ccc(Br)cc1` [Compound 37], the EC50 in experiment [1] is 1000 to 9990 nM. The IC50 on 1b (BK) NS5bΔ21 lay within 1000 to 9990 nM.
For `CNC(=O)c1c2cc(C3CC3)c(N(CCCNC(=O)[C@H]3CC=CC[C@H]3C(=O)O)S(C)(=O)=O)cc2nn1-c1ccc(Br)cc1` [Compound 188], the EC50 in experiment [1] is below 990 nM. Besides, the IC50 on 1b (BK) NS5bΔ21 is below 990 nM.
For `CCOC(=O)CCCN(CC)c1cc2nn(-c3ccc(Br)cc3)c(C(=O)NC)c2cc1C1CC1` [Compound 225], in experiment [1], the EC50 is below 990 nM. The concentration for half-maximal inhibition (IC50) on 1b (BK) NS5bΔ21 lay in the range of 1000 to 9990 nM.
In the same order, the values of `CCN(C(=O)c1ccco1)c1cc2nn(-c3ccc(Br)cc3)c(C(=O)NC)c2cc1C1CC1` [Compound 221] are 1000 to 9990 nM and 10000 to 50000 nM.
Taken in the same sequence, the figures for `C=C(C)c1ccc(-n2nc3cc(N(CC)S(C)(=O)=O)c(C4CC4)cc3c2C(=O)NC)cc1` [Compound 192] were below 990 nM and 1000 to 9990 nM.
Turning to `CNC(=O)c1c2cc(C3CC3)c(N(CCC(=O)NS(=O)(=O)c3ccccc3)S(C)(=O)=O)cc2nn1-c1ccc(Br)cc1` [Compound 150], the EC50 in experiment [1] was 10000 to 50000 nM. In addition, the IC50 at 1b (BK) NS5bΔ21 was below 990 nM.
Consider `CNC(=O)c1c2cc(C3CC3)c(N(CCCOC(=O)c3cnccn3)S(C)(=O)=O)cc2nn1-c1ccc(Oc2ccc(F)cc2)cc1` [Compound 118], for which the concentration giving a half-maximal response (EC50) in experiment [1] was below 990 nM. Further, on 1b (BK) NS5bΔ21, the IC50 was below 990 nM.
Regarding `CCOC(=O)CCCN(c1cc2nn(-c3ccc(Br)cc3)c(C(=O)NC)c2cc1C1CC1)S(C)(=O)=O` [Compound 88, Ethyl 4-{[2-(4-bromophenyl)-5-cyclopropyl-3-(methylcarbamoyl)-2H-indazol-6-yl](methylsulfonyl)amino}butanoate], the EC50 in experiment [1] is below 990 nM. For the same compound, the IC50 at 1b (BK) NS5bΔ21 was below 990 nM.
With `CNC(=O)c1c2cc(C3CC3)c(N3CCCS3(=O)=O)cc2nn1-c1ccc(Br)cc1` [Compound 128], in experiment [1], the EC50 is 1000 to 9990 nM. Also, on 1b (BK) NS5bΔ21, the IC50 lay within 1000 to 9990 nM.
In the case of `CNC(=O)c1c2cc(C3CC3)c(N(CCCN3CCNC3=O)S(C)(=O)=O)cc2nn1-c1ccc(Br)cc1` [Compound 70, 2-(4-Bromophenyl)-5-cyclopropyl-N-methyl-6-{(methylsulfonyl)[3-(2-oxoimidazolidin-1-yl)propyl]amino}-2H-indazole-3-carboxamide], in experiment [1], the 50% effective concentration (EC50) lay in the range of 1000 to 9990 nM. Besides, the IC50 on 1b (BK) NS5bΔ21 is below 990 nM.
Taken in the same sequence, the figures for `CNC(=O)c1c2cc(C3CC3)c(N(CCF)S(C)(=O)=O)cc2nn1-c1ccc(Cl)cc1` [Compound 247] were below 990 nM and below 990 nM.
Taken in the same sequence, the figures for `CNC(=O)c1c2cc(C3CC3)c(N3CCN(C)S3(=O)=O)cc2nn1-c1ccc(Br)cc1` [Compound 104, 2-(4-bromophenyl)-5-cyclopropyl-N-methyl-6-(5-methyl-1,1-dioxido-1,2,5-thiadiazolidin-2-yl)-2H-indazole-3-carboxamide] were 1000 to 9990 nM and 10000 to 50000 nM.
Taken in the same sequence, the figures for `CNC(=O)c1c2cc(C3CC3)c(N(CCC3CCOC3)S(C)(=O)=O)cc2nn1-c1ccc(Br)cc1` (stereo not drawn) [Compound 256] were below 990 nM and below 990 nM.
Turning to `CCN(c1cc2nn(-c3ccc(Br)cc3)c(C(=O)NC)c2cc1C1CC1)S(=O)(=O)C(F)(F)F` [Compound 258], in experiment [1], the EC50 was 1000 to 9990 nM. In addition, at 1b (BK) NS5bΔ21, the IC50 was 1000 to 9990 nM.
Turning to `CCNC(=O)CCCN(c1cc2nn(-c3ccc(Br)cc3)c(C(=O)NC)c2cc1C1CC1)S(C)(=O)=O` [Compound 184], in experiment [1], the EC50 lay in the range of 1000 to 9990 nM. The IC50 on 1b (BK) NS5bΔ21 was below 990 nM.
In the same order, the values of `CNC(=O)c1c2cc(C3CC3)c(N(C3CCNCC3)S(C)(=O)=O)cc2nn1-c1ccc(Br)cc1` [Compound 107, 2-(4-bromophenyl)-5-cyclopropyl-N-methyl-6-[methylsulfonyl(piperidin-4-yl)-amino]-2H-indazole-3-carboxamide] are 1000 to 9990 nM and 1000 to 9990 nM.
In the same order, the values of `CNC(=O)c1c2cc(C3CC3)c(N(CCCNC(C)=O)S(C)(=O)=O)cc2nn1-c1ccc(NCC(C)C)cc1` [Compound 60, 6-{[3-(acetylamino)propyl](methylsulfonyl)amino}-5-cyclopropyl-N-methyl-2-(4-[(2-methylpropyl)amino]phenyl)-2H-indazole-3-carboxamide] are 1000 to 9990 nM and 1000 to 9990 nM.
`C#Cc1cc2c(C(=O)NC)n(-c3ccc(F)cc3)nc2cc1N(CC)S(C)(=O)=O` [Compound 77, 6-[Ethyl(methylsulfonyl)amino]-5-ethynyl-2-(4-fluorophenyl)-N-methyl-2H-indazole-3-carboxamide]: the half-maximal effective concentration (EC50) in experiment [1] lay in the range of 1000 to 9990 nM. The IC50 on 1b (BK) NS5bΔ21 lay within 10000 to 50000 nM.
As to `CNC(=O)c1c2cc(C3CC3)c(N(C)S(C)(=O)=O)cc2nn1-c1ccc(Cl)cc1` [Compound 237], the EC50 in experiment [1] was below 990 nM. The IC50 at 1b (BK) NS5bΔ21 was below 990 nM.
As for `CNC(=O)c1c2cc(C3CC3)c(N3CCCC3=O)cc2nn1-c1ccc(NCC(C)C)cc1` [Compound 105, 5-cyclopropyl-N-methyl-2-{4-[(2-methylpropyl)amino]phenyl}-6-(2-oxopyrrolidin-1-yl)-2H-indazole-3-carboxamide], the EC50 in experiment [1] lay within 1000 to 9990 nM. In addition, at 1b (BK) NS5bΔ21, the IC50 was in the range of 10000 to 50000 nM.
Taken in the same sequence, the figures for `CNC(=O)c1ccccc1C(=O)NCCCN(c1cc2nn(-c3ccc(Br)cc3)c(C(=O)NC)c2cc1C1CC1)S(C)(=O)=O` [Compound 151] were 1000 to 9990 nM and below 990 nM.
In the same order, the values of `CNC(=O)c1c2cc(C3CC3)c(N(CCCN3C(=O)CCC3=O)S(C)(=O)=O)cc2nn1-c1ccc(Br)cc1` [Compound 69, 2-(4-bromophenyl)-5-cyclopropyl-6-{[3-(2,5-dioxopyrrolidin-1-yl)propyl](methylsulfonyl)amino}-N-methyl-2H-indazole-3-carboxamide] are below 990 nM and below 990 nM.
In the same order, the values of `CCN(c1cc2nn(-c3ccc(F)cc3)c(C(=O)NC)c2cc1-c1csc(C)n1)S(C)(=O)=O` [Compound 163] are 1000 to 9990 nM and 10000 to 50000 nM.
